This is an account of results in patent US5547951A, “Pyrido[2,3-b][1,4]benzoxazepin (and thiazepin)-6(5H)-ones and -thiones and their use in the prevention or treatment of HIV-1 infection” (Boehringer Ingelheim Pharamceuticals, Inc., priority 1994, dated 1996).

Structures are written as SMILES. In brackets after ≈: the same amount, converted by molar mass.

System in the first series: not listed separately
Nature of the series: MTT assay for cellular cytotoxicity. The class given is cell-based. The following applies: human, H9 cells, five days, read-out: Cytotoxity Assay EC50. How it is done:
In order to roughly assess the cytotoxicity of the compounds of formula I, several were tested in the MTT Cellular Cytotoxicity Assay described below. Compounds having a relatively high EC50 are preferred.
MTT ASSAY FOR CELLULAR CYTOTOXICITY
The MTT [3-(4,5-dimethylthiazol-2yl)-2,5 diphenyl tetrazolium bromide) assay is based on cleavage of tetrazolium bromide by metabolically active cells, resulting in a highly quantitative blue color. This assay has been previously described (1) but has been optimized for the purposes of the testing reported herein.
The H9 cell line (2), an established human lymphoma suspension cell line grown in RPMI 1640 supplemented with 10% fetal bovine serum is used as the target cell line in the assay. Cells (100μl) are plated in microtest plate wells at a concentration of 10^5 cells per ml in the presence of varying concentrations of inhibitor. The cells are incubated at 37° C in a humidified CO2 incubator. Five days later, 20 μl of MTT (5 mg/ml in RPMI 1640, sonicated, 0.2 micron filtered, and stored at 4° C.) is added to each well. After 4 hours additional incubation at 37° 60 μl of Triton-X is added to each well and thoroughly mixed to aid the solubiltzation of the crystals. Absolute ethanol (5μ) is added to remove bubbles, and the mixture is incubated for 30 minutes at 60° C. and immediately read on a plate reader (Dynatech) at a wavelength of 570 nm. […]
A general note: Tetrazolium assays rely on reduction of a dye to a coloured formazan, in cell work by metabolically active cells.
On to `CSCCN1C(=O)c2ccccc2Oc2nc(Cl)ccc21` [Example 1, 2-Chloro-5-(methylthioethyl)pyrido[2,3-b][1,4]benzoxazepin-6(5H)-one], for which the CC50 at 120 h came out at 20 µg/mL (≈ 62.3 µM).

The next series concerns the target T1, HIV-1 reverse transcriptase (Human immunodeficiency virus type 1 group M subtype B, UniProt P03367).
T1 construct: Reverse transcriptase enzyme from the LAV strain; made in house; host or cells: E. coli JM109, DNA clone pBRTprtl+ in expression vector pIBI21 (lac promoter)
Nature of the series: Reverse Transcriptase (RT) Assay: inhibition of RNA-dependent DNA polymerase activity, cell-free, poly r(C)/oligo d(G) template, 3H-dGTP substrate. The class given is biochemical, Human Immunodeficiency Virus (HIV-1), LAV strain. The following applies: @ 10 μg/ml; room temperature, 60 minutes. The text has this:
Utilizing the Reverse Transcriptase (RT) Assay described below, compounds can be tested for their ability to inhibit the RNA-dependent DNA polymerase activity of HIV RT. Certain specific compounds, described in the Examples which appear below, were so tested. […]
Among the enzymes for which Human Immunodeficiency Virus (HIV-1) encodes is a reverse transcriptase (1), so-named because it transcribes a DNA copy from an RNA template. This activity can be quantitatively measured in a cell-free enzyme assay which has been previously described (2), and is based upon the observation that reverse transcriptase is able to use a synthetic template [poly r(C) primed with oligo d(G)] to transcribe a radio-labelled, acidprecipitable DNA strand utilizing ^3 3H-dGTP as a substrate. […]
a) Preparation of the enzyme
Reverse transcriptase enzyme from the LAV strain of Human Immuno- deficiency Virus (HIV-1) (1) was isolated from the bacterial strain JM109 (3) expressing the DNA clone pBRTprtl+ (2) which is under the control of the lac promotor in the expression vector pIBI21 (4). An overnight culture grown in 2XYT medium (37° C., 225 rpm) (5) supplemented with 100 μg/ml ampicillin for positive selection is inoculated at a 1:40 dilution into M9 medium supplemented with 10μg/ml thiamine, 0.5% casamino acids, and 50 μg/ml ampicillin (5). The culture is incubated (37° C., 225 rpm) until it reaches an 0D540 of 0.3-0.4. At that time the repressor inhibitor IPTG (isopropyl b-D-thiogalactopyranoside) is added to 0.5 mM and incubated for 2 additional hours. Bacteria are pelletted, resuspended in a 50mM Tris, 0.6mM EDTA, 0.375 M NaGl buffer and digested by the addition of lysozyme (1 mg/ml) for 30 minutes on ice. The cells are lysed by the addition to 0.2% NP-40 and brought to 1 M NAGl.
After removal of the insoluble debris by centrifugation, the protein is precipitated by the addition of 3 volumes of saturated aqueous ammonium sulfate. The enzyme is pelleted, resuspended in RT buffer (50 mM Tris pH 7.5, 1 mM EDTA, 5mM DTT, 0.1% NP-40, 0.1M NaCl, and 50% glycerol) and stored at -70° C. for further use. […]
b) Composition of 2X concentrated stock reaction mixture
The 2X concentrated stock reaction mixture is aliquoted and stored at -20° C. The mixture is stable and thawed for use in each assay. This enzyme assay has been adapted to a 96 well microtiter plate system, and has been previously described (6). Tris buffer (50 mM, pH 7.4), vehicle (solvent diluted to match the compound dilution), or compounds in vehicle are dispensed into 96-well microtiter plates (10 μl/well; 3 wells/compound). The HIV RT enzyme is thawed, diluted in 50 mM Tris pH 7.4 so that fifteen μl of diluted enzyme contain 0.001 Unit (one unit is that amount of enzyme to transform 1 micromole of substrate per minute at 25° C.), and 15 μ are dispensed per well. Twenty μl of 0.12-0.5M EDTA are added to the first three wells of the microtiter plate. EDTA thelares the Mg^++ present and prevents reverse transcription. This group serves as background polymerization which is subtracted from all other groups. Twenty-five μl of the 2X reaction mixture are added to all wells and the assay is allowed to incubate at room temperature for 60 minutes. The assay is terminated by precipitating the DNA in each well with 50 μl of 10% trichloracetic acid (TCA) in 1% sodium pyrophosphate. The microtiter plate is incubated for 15 minutes at 4° C. and the precipitate is fixed onto #30 glass fiber paper (Schletcher & Schuell) using a Skatron semi- automatic harvester. The filters are then washed with additional 5% TCA containing 1% sodium pyrophosphate, rinsed with 70% aqueous ethanol, dried, and transferred to scintillation vials (6). Each vial receives 2 mls of scintillation cocktail and is counted in a Beckman beta counter.
Calculations for percent inhibition are as follows [formula] References
As to `C=CCN1C(=O)c2cccc(C)c2Oc2ncccc21` [Example 10, 5-Allyl-10-methylpyrido[2,3-b][1,4]benzoxazepin-6(5H)-one], the inhibition at 10 µg/mL was 84%.

In turn, `CN1C(=O)c2cc(N)ccc2Oc2ncccc21` [Example 6, 8-Amino-5-methylpyrido[2,3-b][1,4]benzoxazepin-6(5H)-one] gave an inhibition at 10 µg/mL of 50%.

In turn, `CCC(=O)N1C(=O)c2cc(C)ccc2Oc2ncccc21` [Example 12, 8-Methyl-5-propionylpyrido[2,3-b][1,4]benzoxazepin-6(5H)-one] returned an inhibition at 10 µg/mL of 49%.

`C=C(Cl)CN1C(=O)c2ccccc2Oc2ncccc21` [Example 7, 5-(2-Chloro-2-propen-1-yl)pyrido[2,3-b][1,4]benzoxazepin-6(5H)-one]: the inhibition at 10 µg/mL is 66%.

The compound `C=CCN1C(=O)c2ccccc2Oc2nc(Cl)ccc21` [Example 2, 5-Allyl-2-chloropyrido[2,3-b][1,4]benzoxazepin-6(5H)-one] displayed an inhibition at 10 µg/mL of 96%.

`CSCCN1C(=O)c2ccccc2Oc2nc(Cl)ccc21` [Example 1, 2-Chloro-5-(methylthioethyl)pyrido[2,3-b][1,4]benzoxazepin-6(5H)-one] displayed an inhibition at 10 µg/mL of 99%.

Take `CCN1C(=O)c2ccc(C)cc2Oc2ncccc21` [Example 11, 5-Ethyl-9-methylpyrido[2,3-b][1,4]benzoxazepin-6(5H)-one]: testing at 10 µg/mL gave an inhibition of 30%.

With `C=C(C)CN1C(=O)c2ccccc2Oc2ncccc21` [Example 8, 5-(2-Methyl-2-propen-1-yl)pyrido[2,3-b][1,4]benzoxazepin-6(5H)-one], the inhibition at 10 µg/mL stood at 47%.

`CN1C(=O)c2ccccc2Oc2ncccc21` [Example 3, 5-Methylpyrido[2,3-b][1,4]benzoxzepin-6(5H)-one] returned an inhibition at 10 µg/mL of 30%.

For the compound `CCN1C(=O)c2cccc(C)c2Oc2ncccc21` [Example 5, 5-Ethyl-10-methylpyrido[2,3-b][1,4]benzoxazepin-6(5H)-one], testing at 10 µg/mL gave an inhibition of 83%.

The compound `CC=CCN1C(=O)c2ccccc2Oc2ncccc21` [Example 9, 5-(2-Buten-1-yl)pyrido[2,3-b][1,4]benzoxazepin-6(5H) -one] registered an inhibition at 10 µg/mL of 39%.

Turning to `CCC(C)N1C(=O)c2ccccc2Oc2ncccc21` (stereo not shown) [Example 4, 5-Sec-butylpyrido[2,3-b][1,4]benzoxazepin-6(5H) -one], the inhibition at 10 µg/mL turned out to be 50%.

Usually inhibition stands for how much of the control response was suppressed. A higher inhibition goes with a response far below the control.
